Data on 25 compounds can be found in patent US20230167127A1, “COMPOUNDS AND THEIR USE IN THE TREATMENT OF BACTERIAL INFECTION” (Hoffmann-La Roche Inc., priority 2020, published 2023).

The test system of the experiment is Escherichia coli ATCC 25922. Put plainly: 50% growth inhibitory concentration (IC50) determination, Iso-Sensitest broth dilution. The class given is cell-based. The following applies: strain Escherichia coli ATCC 25922, 10-point broth dilution, optical density at 600 nm over 16 h, read-out: Escherichia coli growth inhibition IC50. In short, it runs like this:
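Growth was tracked as optical density at 600 nm every 20 minutes for 16 h at 35±2° C. Compounds from DMSO stocks were serially diluted twofold over 10 points (e.g. 50–0.097 μM final) in Iso-Sensitest broth. Inhibition computed in log-phase growth to give IC50.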

The mark [1] stands for this setting: Escherichia coli, ATCC25922, 16 h.

Read-outs that look alike come from different tables or passages of the source.

On to `Cc1ncc(C#N)c2c1CC(CNCC[C@@H]1CN(c3cnc4c(n3)NC(=O)CO4)C(=O)O1)C2` (stereo partly drawn) [Example 365, 1-methyl-6-[[2-[(5R)-2-oxo-3-(3-oxo-4H-pyrazino[2,3-b][1,4]oxazin-6-yl)-1,3-oxazolidin-5-yl]ethylamino]methyl]-6,7-dihydro-5H-cyclopenta[c]pyridine-4-carbonitrile], for which the IC50 under setting [1] was less than 97.7 nM.

Consider `Cc1ncc(F)c2c1CC(NC1CC(C3CN(c4cnc5c(n4)NC(=O)CO5)C(=O)O3)C1)C2` (single isomer, unassigned; isomer b) [Example 329, 6-[5-[3-[(4-fluoro-1-methyl-6,7-dihydro-5H-cyclopenta[c]pyridin-6-yl)amino]cyclobutyl]-2-oxo-1,3-oxazolidin-3-yl]-4H-pyrazino[2,3-b][1,4]oxazin-3-one, Isomer B], for which the IC50 was 453 nM.

With `O=C1COc2ncc(N3CC(CCNCC4Cc5cc(OCCn6nccn6)cc(F)c5C4)OC3=O)nc2N1` (stereo not shown) [Example 343, 6-[5-[2-[[4-fluoro-6-(2-(triazol-2-yl)ethoxy]-2,3-dihydro-1H-inden-2-yl]methylamino]ethyl]-2-oxo-1,3-oxazolidin-3-yl]-4H-pyrazino[2,3-b][1,4]oxazin-3-one; formic acid], under setting [1], the IC50 was determined as 617 nM. As for `Cc1ncc(Cl)c2c1CC(CNCCC1CN(c3ccc4c(n3)NC(=O)CS4)C(=O)O1)C2N` (racemic) [Example 264, 3-(3-Oxo-4H-pyrido[3,2-b][1,4]thiazin-6-yl)-5-[2-[[rac-5,6-trans-5-amino-4-chloro-1-methyl-6,7-dihydro-5H-cyclopenta[c]pyridin-6-yl]methylamino]ethyl]-1,3-oxazolidin-2-one], the IC50 under setting [1] was less than 97.7 nM. The same measure, in the same setting: the result for `NC(CNCC1CN(c2ccc3c(n2)NC(=O)CO3)C(=O)O1)C1Cc2cccc(Cl)c2C1` (stereo not shown) [Example 158, 6-[5-[[[2-amino-2-(4-chloro-2,3-dihydro-1H-inden-2-yl)ethyl]amino]methyl]-2-oxo-1,3-oxazolidin-3-yl]-4H-pyrido[3,2-b][1,4]oxazin-3-one; formic acid] reads 164 nM; that for `Cc1ncc(Cl)c2c1CC(CNCCC1CN(c3cnc4c(n3)NC(=O)CO4)C(=O)O1)C2` (stereo not shown) [Example 60, 6-[5-[2-[(4-chloro-1-methyl-6,7-dihydro-5H-cyclopenta[c]pyridin-6-yl)methylamino]ethyl]-2-oxo-1,3-oxazolidin-3-yl]-4H-pyrazino[2,3-b][1,4]oxazin-3-one; formic acid], less than 97.7 nM. Same read-out and setting: the result for `CNC(=O)COc1ccc2c(c1Cl)CC(CNCCC1CN(c3cnc4c(n3)NC(=O)CO4)C(=O)O1)C2` (stereo not shown) [Example 109, 2 2-[[4-chloro-2-[[2-[2-oxo-3-(3-oxo-4H-pyrazino[2,3-b][1,4]oxazin-6-yl)-1,3-oxazolidin-5-yl]ethylamino]methyl]-2,3-dihydro-1H-inden-5-yl]oxy]-N-methylacetamide] reads 98 nM. The same measure, in the same setting: the figure for `Cc1nc(Cl)c2c(c1F)CC(CNCCC1CN(c3ccc4c(n3)NC(=O)CO4)C(=O)O1)C2` (stereo not shown) [Example 256, 6-[5-[2-[(1-Chloro-4-fluoro-3-methyl-6,7-dihydro-5H-cyclopenta[c]pyridin-6-yl)methylamino]ethyl]-2-oxo-1,3-oxazolidin-3-yl]-4H-pyrido[3,2-b][1,4]oxazin-3-one] is less than 97.7 nM. Consider `O=C1COc2ccc(N3CC(CCCNC4Cc5ccc(Cl)cc5C4)OC3=O)nc2N1` (stereo not shown) [Example 10, 6-[5-[3-[(5-chloro-2,3-dihydro-1H-inden-2-yl)amino]propyl]-2-oxo-1,3-oxazolidin-3-yl]-4H-pyrido[3,2-b][1,4]oxazin-3-one; formic acid], for which, under setting [1], the IC50 came out at 447 nM. The same measure, in the same setting: the figure for `Cc1ncc(F)c2c1CC(C(C)NCC[C@H]1CN(c3cnc4c(n3)NC(=O)CO4)C(=O)O1)C2` (stereo partly drawn) [Example 330, 6-[(5S)-5-[2-[1-(4-fluoro-1-methyl-6,7-dihydro-5H-cyclopenta[c]pyridin-6-yl)ethylamino]ethyl]-2-oxo-1,3-oxazolidin-3-yl]-4H-pyrazino[2,3-b][1,4]oxazin-3-one; formic acid] is less than 97.7 nM; for `Cc1cnc(C)c2c1CC(CNCCC1CN(c3ccc4c(n3)NC(=O)CO4)C(=O)O1)C2` (stereo not shown) [Example 98, 6-[5-[2-[(1,4-dimethyl-6,7-dihydro-5H-cyclopenta[c]pyridin-6-yl)methylamino]ethyl]-2-oxo-1,3-oxazolidin-3-yl]-4H-pyrido[3,2-b][1,4]oxazin-3-one] it is less than 97.7 nM.

Turning to `CS(=O)(=O)NCCOc1ccc2c(c1C#N)CC(CNCCC1CN(c3ccc4c(n3)NC(=O)CO4)C(=O)O1)C2` (stereo not shown) [Example 59, N-[2-[[4-cyano-2-[[2-[2-oxo-3-(3-oxo-4H-pyrido[3,2-b][1,4]oxazin-6-yl)-1,3-oxazolidin-5-yl]ethylamino]methyl]-2,3-dihydro-1H-inden-5-yl]oxy]ethyl]methanesulfonamide], the IC50 under setting [1] came to 253 nM.

Turning to `Cc1ncc(C#N)c2c1CC(CNCCC1CN(c3cnc4c(n3)NC(=O)CO4)C(=O)O1)C2` (stereo not shown) [Example 291, 1-methyl-6-[[2-[2-oxo-3-(3-oxo-4H-pyrazino[2,3-b][1,4]oxazin-6-yl)-1,3-oxazolidin-5-yl]ethylamino]methyl]-6,7-dihydro-5H-cyclopenta[c]pyridine-4-carbonitrile;2,2,2-trifluoroacetic acid], the IC50 under setting [1] was less than 97.7 nM. On the same count and under the same terms, the result for `NC1(COc2cc3c(c(Cl)n2)CC(CNCCC2CN(c4ccc5c(n4)NC(=O)CO5)C(=O)O2)C3)CC1` (stereo not shown) [Example 122, 6-[5-[2-[[3-[(1-aminocyclopropyl)methoxy]-1-chloro-6,7-dihydro-5H-cyclopenta[c]pyridin-6-yl]methylamino]ethyl]-2-oxo-1,3-oxazolidin-3-yl]-4H-pyrido[3,2-b][1,4]oxazin-3-one; formic acid] reads less than 97.7 nM. On the same count and under the same terms, the figure for `O=C1COc2ccc(N3CC(CCNCC4Cc5cc(OC6CNC6)cc(F)c5C4)OC3=O)nc2N1` (stereo not shown) [Example 150, 6-[5-[2-[[6-(azetidin-3-yloxy)-4-fluoro-2,3-dihydro-1H-inden-2-yl]methylamino]ethyl]-2-oxo-1,3-oxazolidin-3-yl]-4H-pyrido[3,2-b][1,4]oxazin-3-one] is less than 97.7 nM; for `CN(C)CCOc1cc(F)c2c(c1)CC(CNCCC1CN(c3ccc4c(n3)NC(=O)CO4)C(=O)O1)C2` (stereo not shown) [Example 271, 6-[5-[2-[[6-[2-(Dimethylamino)ethoxy]-4-fluoro-2,3-dihydro-1H-inden-2-yl]methylamino]ethyl]-2-oxo-1,3-oxazolidin-3-yl]-4H-pyrido[3,2-b][1,4]oxazin-3-one; formic acid] it is less than 97.7 nM. As to `O=C1COc2ccc(N3CC(CCCNC4Cc5cccc(Cl)c5C4)OC3=O)nc2N1` (stereo not shown) [Example 4, 6-[5-[3-[(4-chloro-2,3-dihydro-1H-inden-2-yl)amino]propyl]-2-oxo-1,3-oxazolidin-3-yl]-4H-pyrido[3,2-b][1,4]oxazin-3-one], under setting [1], the IC50 is less than 97.7 nM. Consider `COc1cnc(Cl)c2c1CC(CNCCC1CN(c3ccc4c(n3)NC(=O)CO4)C(=O)O1)C2` (stereo not shown) [Example 57, 6-[5-[2-[(1-chloro-4-methoxy-6,7-dihydro-5H-cyclopenta[c]pyridin-6-yl)methylamino]ethyl]-2-oxo-1,3-oxazolidin-3-yl]-4H-pyrido[3,2-b][1,4]oxazin-3-one], for which the IC50 under setting [1] amounted to 328 nM. Still for that read-out and setting: the result for `CNC(=O)COc1ccc2c(c1F)CC(CN1CCC3(CC1)CN(c1cnc4c(n1)NC(=O)CO4)C(=O)O3)C2` (stereo not shown) [Example 336, 2-[[4-fluoro-2-[[2-oxo-3-(3-oxo-4H-pyrazino[2,3-b][1,4]oxazin-6-yl)-1-oxa-3,8-diazaspiro[4.5]decan-8-yl]methyl]-2,3-dihydro-1H-inden-5-yl]oxy]-N-methylacetamide] reads less than 97.7 nM; that for `N#Cc1cccc2c1CC(NCCCC1CN(c3cnc4c(n3)NC(=O)CO4)C(=O)O1)C2` (stereo not shown) [Example 80, 2-[3-[2-oxo-3-(3-oxo-4H-pyrazino[2,3-b][1,4]oxazin-6-yl)-1,3-oxazolidin-5-yl]propylamino]-2,3-dihydro-1H-indene-4-carbonitrile], less than 97.7 nM; that for `NC(=O)COc1ccc2c(c1F)CC(CNCCC1CN(c3cnc4c(n3)NC(=O)CO4)C(=O)O1)C2` (stereo not shown) [Example 413, 2-[[4-fluoro-2-[[2-[2-oxo-3-(3-oxo-4H-pyrazino[2,3-b][1,4]oxazin-6-yl)-1,3-oxazolidin-5-yl]ethylamino]methyl]-2,3-dihydro-1H-inden-5-yl]oxy]acetamide], less than 97.7 nM. In the case of `NC(=O)COc1cc(F)c2c(c1)CC(CNCCc1cn(-c3cnc4c(n3)NC(=O)CO4)c(=O)o1)C2` (stereo not shown) [Example 306, 2-[[7-fluoro-2-[[2-[2-oxo-3-(3-oxo-4H-pyrazino[2,3-b][1,4]oxazin-6-yl)-1,3-oxazol-5-yl]ethylamino]methyl]-2,3-dihydro-1H-inden-5-yl]oxy]acetamide; formic acid], the IC50 under setting [1] was less than 97.7 nM. On the same count and under the same terms, the figure for `Cc1ncc(F)c2c1CC(CN1CC(C3CN(c4cnc5c(n4)NC(=O)CO5)C(=O)O3)C1)C2` (stereo not shown) [Example 75, 6-[5-[1-[(4-fluoro-1-methyl-6,7-dihydro-5H-cyclopenta[c]pyridin-6-yl)methyl]azetidin-3-yl]-2-oxo-oxazolidin-3-yl]-4H-pyrazino[2,3-b][1,4]oxazin-3-one; formic acid] is 230 nM; for `O=C1COc2ccc(N3CC(CNC4Cc5cccc(Cl)c5C4)OC3=O)nc2N1` (stereo not shown) [Example 22, 6-[5-[[(4-chloro-2,3-dihydro-1H-inden-2-yl)amino]methyl]-2-oxo-1,3-oxazolidin-3-yl]-4H-pyrido[3,2-b][1,4]oxazin-3-one] it is 8530 nM; for `COCCNCCOc1nc(C)c2c(c1C)CC(CNCCC1CN(c3ccc4c(n3)NC(=O)CO4)C(=O)O1)C2` (stereo not shown) [Example 202, 6-[5-[2-[[3-[2-(2-methoxyethylamino)ethoxy]-1,4-dimethyl-6,7-dihydro-5H-cyclopenta[c]pyridin-6-yl]methylamino]ethyl]-2-oxo-1,3-oxazolidin-3-yl]-4H-pyrido[3,2-b][1,4]oxazin-3-one] it is 135 nM.

The IC50 is the concentration needed to halve the response being measured.
